Results from patent US20250115612A1, “CERTAIN 2,5-DIAZABICYCLO[4.2.0]OCTANES AND OCTAHYDROFURO[3,4-B]PYRAZINES AS GLP-1 RECEPTOR MODULATORS” (ASTRAZENECA AB, priority 2021, published 2025).
pEC50, pIC50: −log10 of the molar value.

Key:
human GLP-1R receptor = molecular target: T1, human GLP-1R receptor (Homo sapiens, UniProt P43220, L260F); assay: CHOK1 GLP-1R cAMP assay (HTRF); format: cell-based; conditions: CHO-K1 cells stably expressing human GLP-1R
T1 construct: expressed in transfected cells; host or cells: CHO-K1 (ATCC CCL-61)
T1 sequence (P43220 24-463 L260F): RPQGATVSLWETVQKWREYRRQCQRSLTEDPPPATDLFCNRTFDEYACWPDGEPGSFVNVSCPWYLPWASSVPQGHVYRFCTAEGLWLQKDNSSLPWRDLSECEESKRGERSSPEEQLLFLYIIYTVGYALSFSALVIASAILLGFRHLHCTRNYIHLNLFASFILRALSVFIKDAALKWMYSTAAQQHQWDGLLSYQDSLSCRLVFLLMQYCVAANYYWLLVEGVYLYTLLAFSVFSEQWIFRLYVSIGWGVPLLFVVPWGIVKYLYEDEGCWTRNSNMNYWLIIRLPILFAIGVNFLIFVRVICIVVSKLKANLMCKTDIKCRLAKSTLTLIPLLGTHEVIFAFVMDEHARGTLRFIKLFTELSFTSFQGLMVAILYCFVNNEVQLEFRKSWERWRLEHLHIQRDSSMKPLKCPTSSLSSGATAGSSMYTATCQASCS
Method in brief: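 Cells were CHO-K1 stably expressing human GLP-1R (Leu260Phe variant), at 800 cells/well in HEPES pH 7.4/HBSS/0.1% BSA with IBMX, stimulated 20 min at rt. cAMP was measured by competitive HTRF and converted via a standard curve. EC50 came from a 4-parameter logistic fit, with % effect relative to a saturating GLP-1(7-36)NH2 concentration.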

GLP-1R = molecular target: T2, GLP-1R (Homo sapiens, UniProt P43220); assay: EndoC cAMP accumulation assay (HTRF, EndoC-βH1 cells); format: cell-based; conditions: EndoC-βH1 human pancreatic β cell line
T2 construct: host or cells: EndoC-βH1
T2 sequence (P43220 24-463): as the sequence (P43220 24-463 L260F) above, with F237L counted along it
Method in brief: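 Thawed cryopreserved EndoC-βH1 cells, about 3000 per well, were stimulated for 30 min at room temperature. Buffer was HBSS with 25 mM HEPES pH 7.4, 0.1% BSA and 0.5 mM IBMX. cAMP was measured by competitive HTRF after 1 h lysis/detection (590/660 nm). Four-parameter fits gave % activation between basal and maximal GIP (82.5 nM) signal.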

[1] = molecular target: T3, human phosphodiesterase-3A (Homo sapiens, UniProt Q14432); assay: PDE3 assay (formation of 5'AMP from cAMP, SPA); format: biochemical; conditions: human recombinant enzyme expressed in Sf9 cells
T3 construct: host or cells: Sf9 (Spodoptera frugiperda)
T3 sequence (Q14432 whole entry): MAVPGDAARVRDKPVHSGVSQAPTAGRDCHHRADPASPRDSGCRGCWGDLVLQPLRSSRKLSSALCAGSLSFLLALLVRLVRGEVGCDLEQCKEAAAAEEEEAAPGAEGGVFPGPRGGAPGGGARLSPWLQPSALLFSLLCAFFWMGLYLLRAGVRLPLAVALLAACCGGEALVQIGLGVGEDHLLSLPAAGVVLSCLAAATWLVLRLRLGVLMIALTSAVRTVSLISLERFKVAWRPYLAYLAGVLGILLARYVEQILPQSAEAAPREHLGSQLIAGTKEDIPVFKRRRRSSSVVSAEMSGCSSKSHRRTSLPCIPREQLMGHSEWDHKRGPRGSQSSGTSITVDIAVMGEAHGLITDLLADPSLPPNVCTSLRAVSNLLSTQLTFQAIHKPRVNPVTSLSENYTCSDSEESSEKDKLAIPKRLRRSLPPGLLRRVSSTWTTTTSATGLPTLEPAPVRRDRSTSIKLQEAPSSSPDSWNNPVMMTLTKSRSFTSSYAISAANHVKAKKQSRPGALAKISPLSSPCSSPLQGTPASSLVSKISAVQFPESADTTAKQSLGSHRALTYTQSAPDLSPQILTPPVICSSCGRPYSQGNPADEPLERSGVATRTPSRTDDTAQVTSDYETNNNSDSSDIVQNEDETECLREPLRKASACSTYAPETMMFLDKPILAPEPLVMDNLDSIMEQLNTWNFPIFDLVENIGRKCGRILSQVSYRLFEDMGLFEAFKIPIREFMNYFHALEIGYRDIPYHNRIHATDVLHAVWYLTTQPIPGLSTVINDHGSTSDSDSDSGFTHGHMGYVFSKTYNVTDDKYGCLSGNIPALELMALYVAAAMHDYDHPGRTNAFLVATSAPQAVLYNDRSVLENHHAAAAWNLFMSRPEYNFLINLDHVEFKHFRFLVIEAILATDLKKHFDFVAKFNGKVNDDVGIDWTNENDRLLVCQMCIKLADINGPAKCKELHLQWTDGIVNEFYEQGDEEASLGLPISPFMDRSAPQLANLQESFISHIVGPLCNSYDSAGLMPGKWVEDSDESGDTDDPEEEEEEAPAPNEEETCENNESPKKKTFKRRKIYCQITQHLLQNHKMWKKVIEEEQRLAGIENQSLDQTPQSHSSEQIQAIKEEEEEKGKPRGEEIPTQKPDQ
Protocol: Evaluation of the effects of compounds on the activity of the human phosphodiesterase-3A is quantified by measuring the formation of 5′AMP from cAMP using a human recombinant enzyme expressed in a clonal isolate of Spodoptera frugiperda cells (Sf9) cells.
The test compound, reference compound or water (control) are added to a buffer containing 40 mM tris(hydroxymethyl)aminomethane (Tris)/HCl (pH 7.4) and 8 mM MgCl2, 450 nMcAMP and 0.25 μCi [3H]cAMP.
Thereafter, the reaction is initiated by addition of the enzyme (about 1 U) and the mixture is incubated for 20 min at 22° C.
For basal control measurements, the enzyme is omitted from the reaction mixture.
Following incubation SPA beads are added. After 30 min at 22° C. under shaking, the amount of [^3H]5′AMP is quantified with a scintillation counter (Topcount, Packard).
The results are expressed as a percent inhibition of the control enzyme activity. The standard inhibitory reference compound is milrinone (CAS number 78415-72-2), which is tested in each experiment at several concentrations to obtain an inhibition curve from which its IC50 value is calculated.

In the case of `COc1cc(C(=O)O)cc2c1nc(CN1CCN(c3cccc(OCc4ccc(Cl)cc4F)n3)[C@H]3CC[C@@H]31)n2C[C@@H]1CCO1` (single isomer, unassigned) [Example 5b, 2-(((1R*,6R*)-5-(6-((4-Chloro-2-fluorobenzyl)oxy)pyridin-2-yl)-2,5-diazabicyclo[4.2.0]octan-2-yl)methyl)-4-methoxy-1-(((S)-oxetan-2-yl)methyl)-1H-benzo[d]imidazole-6-carboxylic acid], the pEC50 (human GLP-1R receptor) was 9.30, the pEC50 (GLP-1R) was 8.68 and the pIC50 [1] was < 4.00.
